Results published in patent publication US7381824B2 (Agouron Pharmaceuticals, Inc., priority 2003, dated 2008).

Assays:
[1] = target: T1, human vascular endothelial growth factor receptor 2 (VEGF-R2) (Homo sapiens, UniProt P35968, DEL940-989/E990V); assay: VEGF-R2 coupled spectrophotometric assay (FLVK, unphosphorylated VEGF-R2D50); format: biochemical; conditions: unphosphorylated VEGF-R2D50 (FLVK)
T1 construct: VEGF-R2D50 contains residues 806-939 and 990-1171; made in house; host or cells: baculovirus/insect cell system
From the text: This construct determines the ability of a test compound to inhibit tyrosine kinase activity. A construct (VEGF-R2D50) of the cytosolic domain of human vascular endothelial growth factor receptor 2 (VEGF-R2) lacking the 50 central residues of the 68 residues of the kinase insert domain was expressed in a baculovirus/insect cell system. Of the 1356 residues of full-length VEGF-R2, VEGF-R2D50 contains residues 806-939 and 990-1171, and also one point mutation (E990V) within the kinase insert domain relative to wild-type VEGF-R2. Autophosphorylation of the purified construct was performed by incubation of the enzyme at a concentration of […] in the presence of 3 mM ATP and 40 mM MgCl2 in 100 mM HEPES, pH 7.5, containing 5% glycerol and 5 mM DTT, at 4° C. for 2 h. […] See Parast et al., Biochemistry, 37, 16788-16801 (1998).
VEGF-R2 Assay: Coupled Spectrophotometric (FLVK-P) Assay
The production of ADP from ATP that accompanies phosphoryl transfer was coupled to oxidation of NADH using phosphoenolpyruvate (PEP) and a system having pyruvate kinase (PK) and lactic dehydrogenase (LDH). The oxidation of NADH was monitored by following the decrease of absorbance at 340 nm (e340=6.22 cm^−1 mM^−1) using a Beckman DU 650 spectrophotometer. Assay conditions for phosphorylated VEGF-R2D50 (indicated as FLVK-P in the tables below) were the following: 1 mM PEP; […] NADH; 50 units of LDH/mL; 20 units of PK/mL; 5 mM DTT; 5.1 mM poly(E4Y1); 1 mM ATP; and 25 mM MgCl2 in 200 mM HEPES, pH 7.5. Assay conditions for unphosphorylated VEGF-R2D50 (indicated as FLVK in the tables) were the following: 1 mM PEP; […] NADH; 50 units of LDH/mL; 20 units of PK/mL; 5 mM DTT; 20 mM poly(E4Y1); 3 mM ATP; and 60 mM MgCl2 and 2 mM MnCl2 in 200 mM HEPES, pH 7.5. Assays were initiated with 5 to 40 nM of enzyme. K1 values were determined by measuring enzyme activity in the presence of varying concentrations of test compounds. The percent inhibition at 50 nM (% inhibition @ 50 nM) was determined by linear least-squares regression analysis of absorbance as a function of time. The binding inhibitions were fitted to equation as described by Morrison. The data were analyzed using Enzyme Kinetic and Kaleidagraph software.

[2] = tested on: human umbilical vein endothelial cells (HUVEC); assay: HUVEC+VEGF proliferation assay; format: cell-based; conditions: Homo sapiens; VEGF-stimulated HUVEC proliferation, MTT, 72 hours
Procedure: HUVEC+VEGF Proliferation Assay
This assay determines the ability of a test compound to inhibit the growth factor-stimulated proliferation of human umbilical vein endothelial cells (“HUVEC”). HUVEC cells (passage 3-4, Clonetics, Corp.) were thawed into EGM2 culture medium (Clonetics Corp) in T75 flasks. Fresh EGM2 medium was added to the flasks 24 hours later. Four or five days later, cells were exposed to another culture medium (F12K medium supplemented with 10% fetal bovine serum (FBS), […] endothelial cell growth supplement (ECGS), and 0.1 mg/mL heparin). Exponentially-growing HUVEC cells were used in experiments thereafter. Ten to twelve thousand HUVEC cells were plated in 96-well dishes in […] of rich, culture medium (described above). The cells were allowed to attach for 24 hours in this medium. The medium was then removed by aspiration and […] of starvation media (F12K+1% FBS) was added to each well. After 24 hours, […] of test agent dissolved in 1% DMSO in starvation medium or this vehicle alone was added into each treatment well; the final DMSO concentration was 0.1%. One hour later, […] of VEGF (30 ng/mL) in starvation media was added to all wells except those containing untreated controls; the final VEGF concentration was 6 ng/mL. Cellular proliferation was quantified 72 hours later by MTT dye reduction, at which time cells were exposed for 4 hours MTT (Promega Corp.). Dye reduction was stopped by addition of a stop solution (Promega Corp.) and absorbance at 595 nm was determined on a 96-well spectrophotometer plate reader.

T1 sequence (P35968 with tags, fused parts or gaps DEL940-989/E990V limits assumed): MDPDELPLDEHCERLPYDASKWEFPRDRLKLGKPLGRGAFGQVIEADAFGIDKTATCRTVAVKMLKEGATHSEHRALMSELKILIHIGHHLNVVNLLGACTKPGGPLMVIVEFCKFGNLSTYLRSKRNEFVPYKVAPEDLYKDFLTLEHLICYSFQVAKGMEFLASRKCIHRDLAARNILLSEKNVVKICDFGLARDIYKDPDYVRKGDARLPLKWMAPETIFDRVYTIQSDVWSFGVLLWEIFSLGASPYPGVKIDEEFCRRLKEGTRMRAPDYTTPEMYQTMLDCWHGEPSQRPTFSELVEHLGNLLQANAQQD

| SMILES | Ki [1] [nM] | IC50 [2] [nM] |
| --- | --- | --- |
| CNC(=O)c1c(C)oc2cc(Oc3ccnc4cc(I)ccc34)ccc12 [Example 6, 6-[(7-iodoquinolin-4-yl)oxy]-N,2-dimethyl-1-benzofuran-3-carboxamide] | 1 to 10 | 1 to 10 |
| CNC(=O)c1c(C)oc2cc(Oc3ccnc4cc(-c5cccnc5)ccc34)ccc12 [Example 8, N-2-dimethyl-6-[(7-pyridin-3-ylquinolin-4-yl)oxy]-1-benzofuran-3-carboxamide] | < 1 | < 1 |
| CNC(=O)c1c(C)oc2cc(Oc3ccnc4cc(-c5ccccn5)ccc34)ccc12 [Example 9, N-2-dimethyl-6-[(7-pyridin-2-ylquinolin-4-yl)oxy]-1-benzofuran-3-carboxamide] | < 1 | 1 to 10 |
| CNC(=O)c1c(C)sc2cc(Oc3ccnc4cc(-c5ccncc5)ccc34)ccc12 [Example 10, N-2-dimethyl-6-[(7-pyridin-4-ylquinolin-4-yl]oxy]-1-benzothiophene-3-carboxamide] | 1 to 10 | 1 to 10 |
| CNC(=O)n1c(C)cc2cc(Nc3ccnc4cc(-c5ccncc5)ccc34)ccc21 [Example 11, N-2-dimethyl-5-[(7-pyridin-4-ylquinolin-4-yl]amino]-1H-indole-1-carboxamide] | 1 to 10 | < 1 |
| CNC(=O)c1c(C)oc2cc(Oc3ccnc4cc(-c5ccco5)ccc34)ccc12 [Example 13, 6-{[7-(2-furyl)quinolin-4-yl]oxy}-N,2-dimethyl-1-benzofuran-3-carboxamide] | < 1 | 1 to 10 |
| CNC(=O)c1c(C)sc2cc(Oc3ccnc4cc(-c5cccnc5)ccc34)ccc12 [Example 14, N2dimethyl-6-[(7-pyridin-3-ylquinolin-4-yl)oxy]-1-benzothiophene-3-carboxamide] | 1 to 10 | 1 to 10 |
| CNC(=O)c1c(C)oc2cc(Oc3ccnc4cc(Br)ccc34)ccc12 [Example 19, 6-[(7-bromoquinolin-4-yl)oxy]-N,2-dimethy-1-benzofuran-3-carboxamide] | 1 to 10 | 1 to 10 |
| CNC(=O)c1c(C)oc2cc(Oc3ccnc4cc(O)ccc34)ccc12 [Example 28, 6-[(7-hydroxyquinoline-4-yl)oxy]-N,2-dimethyl-1-benzofuran-3-carboxamide] | – | 1 to 10 |
| CNC(=O)c1c(C)oc2cc(Oc3ccnc4cc(OC)ccc34)ccc12 [Example 29, 6-[(7-methoxyquinoline-4-yl)oxy]-N,2-dimethyl-1-benzofuran-3-carboxamide] | < 1 | 1 to 10 |
| CNC(=O)n1c(C)cc2cc(Nc3ccnc4cc(-c5ccccn5)ccc34)ccc21 [Example 32] | – | 1 to 10 |
| CNC(=O)c1c(C)oc2cc(Oc3ccnc4cc(OCCN5CCCC5)ccc34)ccc12 [Example 35, N,2-dimethyl-6-{[7-(2-pyrrolidin-1-ylethoxy)quinolin-4-yl]oxy}-1-benzofuran-3-carboxamide] | – | < 1 |
| CCCCNC(=O)c1c(C)oc2cc(Oc3ccnc4cc(OC)ccc34)ccc12 [Example 39, N-butyl-6-[(7-methoxyquinolin-4-yl)oxy]-2-methyl-1-benzofuran-3-carboxamide] | – | < 1 |
| COc1ccc2c(Oc3ccc4c(C(=O)Nc5ccccn5)c(C)oc4c3)ccnc2c1 [Example 40, 6-[(7-methoxyquinolin-4-yl)oxy]-2-methyl-N-pyridin-2-yl-1-benzofuran-3-carboxamide] | – | < 1 |
| CCCCNC(=O)c1c(C)oc2cc(Oc3ccnc4cc(O)ccc34)ccc12 [Example 41, N-butyl-6-[(7-hydroxyquinolin-4-yl)oxy]-2-methyl-1-benzofuran-3-carboxamide] | – | 1 to 10 |
| C=CCOc1ccc2c(Oc3ccc4c(C(=O)NC)c(C)oc4c3)ccnc2c1 [Example 42, 6-{[7-(allyloxy)quinolin-4-yl]oxy}-N,2-dimethyl-1-benzofuran-3-carboxamide] | – | < 1 |
| COc1ccc2c(Oc3ccc4c(C(=O)NC(C)C)c(C)oc4c3)ccnc2c1 [Example 43, N-isopropyl-6-[(7-methoxyquinolin-4-yl)oxy]-2-methyl-1-benzofuran-3-carboxamide] | – | 1 to 10 |
| COc1ccc2c(Oc3ccc4c(C(=O)NCCCN5CCOCC5)c(C)sc4c3)ccnc2c1 [Example 62, 6-[(7-methoxyquinolin-4-yl)oxy]-2-methyl-N-(3-morpholin-4-ylpropyl)-1-benzothiophene-3-carboxamide] | – | > 10 |
| COc1ccc2c(Oc3ccc4c(C(=O)NC5CC5)c(C)oc4c3)ccnc2c1 [Example 63, N-cyclopropyl-6-[(7-methoxyquinolin-4-yl)oxy]-2-methyl-1-benzofuran-3-carboxamide] | – | < 1 |
| COc1ccc2c(Oc3ccc4c(C(=O)NCCCN5CCOCC5)c(C)oc4c3)ccnc2c1 [Example 64, 6-[(7-methoxyquinolin-4-yl)oxy]-2-methyl-N-(3-morpholin-4-ylpropyl)-1-benzofuran-3-carboxamide] | – | 1 to 10 |
| Cc1oc2cc(Oc3ccnc4cc(OCCBr)ccc34)ccc2c1C(=O)NC1CC1 [Example 93, 6-{[7-(2-bromoethoxy)quinolin-4-yl]oxy}-N-cyclopropyl-2-methyl-1-benzofuran-3-carboxamide] | < 1 | – |
| CCN1CCN(CCOc2ccc3c(Oc4ccc5c(C(=O)NC6CC6)c(C)oc5c4)ccnc3c2)CC1 [Example 94, N-cyclopropyl-2-methyl-6-{7-[2-(4-ethyl-piperazin-1-yl)-ethoxy]quinolin-4-yloxy}-1-benzofuran-3-carboxamide] | < 1 | – |
| Cc1oc2cc(Oc3ccnc4cc(OCCNC(C)C)ccc34)ccc2c1C(=O)NC1CC1 [Example 95, N-cyclopropyl-6-({7-[2-(isopropylamino)ethoxy]quinolin-4-yl}oxy)-2-methyl-1-benzofuran-3-carboxamide] | < 1 | – |
| Cc1oc2cc(Oc3ccnc4cc(OCCNC5CC5)ccc34)ccc2c1C(=O)NC1CC1 [Example 96, N-cyclopropyl-6-({7-[2-(cyclopropylamino)ethoxy]quinolin-4-yl}oxy)-2-methyl-1-benzofuran-3-carboxamide] | < 1 | – |
| COCC(C)NCCOc1ccc2c(Oc3ccc4c(C(=O)NC5CC5)c(C)oc4c3)ccnc2c1 (centres unmarked) [Example 97, N-cyclopropyl-6-[(7-{2-[(2-methoxy-1-methylethyl)amino]ethoxy}quinolin-4-yl)oxy]-2-methyl-1-benzofuran-3-carboxamide] | < 1 | – |
| Cc1oc2cc(Oc3ccnc4cc(OCCNC(C)(C)C)ccc34)ccc2c1C(=O)NC1CC1 [Example 98] | < 1 | – |
| Cc1oc2cc(Oc3ccnc4cc(OCCNC5CCC5)ccc34)ccc2c1C(=O)NC1CC1 [Example 100] | – | 1 to 10 |
| COc1ccc2c(Oc3ccc4c(C(=O)Nc5cc(C)cc(C)n5)c(C)oc4c3)ccnc2c1 [Example 108, N-(4,6-dimethylpyridin-2-yl)-6-[(7-methoxyquinolin-4-yl)oxy]-2-methyl-1-benzofuran-3-carboxamide] | – | 1 to 10 |
| Cc1cc(C)nc(NC(=O)c2c(C)oc3cc(Oc4ccnc5cc(O)ccc45)ccc23)c1 [Example 109, N-(4,6-dimethylpyridin-2-yl)-6-[(7-hydroxyquinolin-4-yl)oxy]-2-methyl-1-benzofuran-3-carboxamide] | – | > 10 |
